# Measurements taken from ChEMBL document CHEMBL1201862, “PubChem BioAssay data set” (2004).
# Activity calls are given as the source filed them. For most assays here, no stated cut-off is given here; in the data, actives have a measured EC50 and inactives only a lower limit.
# Assays:
# Protein skinhead-1 = target: T1, Protein skinhead-1 (Caenorhabditis elegans, UniProt P34707); assay type: functional
# T1 sequence (P34707 whole entry): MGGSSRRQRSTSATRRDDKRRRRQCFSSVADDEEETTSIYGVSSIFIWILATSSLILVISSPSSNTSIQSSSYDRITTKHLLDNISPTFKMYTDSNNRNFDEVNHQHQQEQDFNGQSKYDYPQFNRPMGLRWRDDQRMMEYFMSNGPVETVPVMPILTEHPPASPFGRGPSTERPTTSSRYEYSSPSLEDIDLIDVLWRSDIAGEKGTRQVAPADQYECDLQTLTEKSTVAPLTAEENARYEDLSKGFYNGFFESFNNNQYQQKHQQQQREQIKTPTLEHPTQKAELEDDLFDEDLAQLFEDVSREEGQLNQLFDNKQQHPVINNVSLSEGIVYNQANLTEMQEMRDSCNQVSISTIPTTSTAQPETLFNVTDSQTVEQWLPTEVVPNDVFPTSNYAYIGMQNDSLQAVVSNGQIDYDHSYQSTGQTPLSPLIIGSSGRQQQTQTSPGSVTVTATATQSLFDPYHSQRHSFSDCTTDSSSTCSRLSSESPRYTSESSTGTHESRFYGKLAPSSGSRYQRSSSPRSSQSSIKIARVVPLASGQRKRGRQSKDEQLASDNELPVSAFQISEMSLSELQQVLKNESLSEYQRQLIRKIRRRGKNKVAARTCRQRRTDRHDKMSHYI
# BJ [1] = assay: BJ-TERT-LT-ST fibroblast viability loss – cell-based, RAS-independent, luminescence, dose response (AID 1935); assay type: functional; conditions: Homo sapiens;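 further: BJ fibroblasts immortalized with TERT plus LT and ST oncogenes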
# [2] = alpha-synuclein stem-loop luciferase translation blockers – H4 neuroglioma cells, luminescence, confirmation (AID 1988); assay type: functional, cell-based
# [3] = DRD fibroblast viability loss – cell-based, non-viral oncogenic, luminescence, dose response (AID 1934); assay type: functional; conditions: Homo sapiens
# [4] = luciferase reporter signal suppression in cells – H4 neuroglioma cells, luminescence, dose response (AID 1990); assay type: functional, cell-based
# BJ [5] = assay: BJ-TERT fibroblast viability loss – cell-based, RAS-independent, luminescence, dose response (AID 1933); assay type: functional; conditions: Homo sapiens
# BJ [6] = assay: cells; assay type: functional, cell-based; conditions: Homo sapiens
# [7] = Luminescence Cell-Based Dose Response HTS to Identify Inhibitors of 5'UTR Stem-Loop Driven Prion Protein mRNA Translation in H4 Neuroglioblastoma Cells. [Related pubchem assays: 1827 (Project Summary), 1813 (Primary HTS)]; assay type: functional
# [8] = target: T2, Heat shock factor protein 1 (Mus musculus, UniProt P38532); assay: decrease of HSF1-responsive luciferase luminescence – cell-based, NIH3T3, dose retest, confirmation (AID 2382); assay type: functional;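 further: NIH3T3 fibroblasts with HSF1-driven luciferase reporter stressed by proteasome inhibitor MG132; luminescence from HSF1-driven luciferase expression after 8 hours of MG132 stress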
# T2 sequence (P38532 whole entry): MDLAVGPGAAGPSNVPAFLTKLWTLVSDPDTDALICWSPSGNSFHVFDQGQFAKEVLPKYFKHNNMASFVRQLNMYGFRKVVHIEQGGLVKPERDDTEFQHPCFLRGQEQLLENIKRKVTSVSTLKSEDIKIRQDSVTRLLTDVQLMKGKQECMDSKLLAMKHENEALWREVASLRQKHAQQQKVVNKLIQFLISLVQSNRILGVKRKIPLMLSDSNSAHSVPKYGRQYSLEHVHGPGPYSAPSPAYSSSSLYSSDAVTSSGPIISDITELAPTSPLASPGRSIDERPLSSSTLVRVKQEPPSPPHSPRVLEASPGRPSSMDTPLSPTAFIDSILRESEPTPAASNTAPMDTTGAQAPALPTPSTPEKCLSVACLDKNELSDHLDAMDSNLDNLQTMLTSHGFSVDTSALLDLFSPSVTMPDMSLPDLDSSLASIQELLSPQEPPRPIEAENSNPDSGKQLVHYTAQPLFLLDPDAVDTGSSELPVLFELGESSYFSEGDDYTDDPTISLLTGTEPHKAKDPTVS
# [9] = NIH3T3 cell viability loss – ATP luminescence, mouse fibroblasts, counter-screen, dose response (AID 2010); assay type: functional, cell-based;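 further: cells exposed to compound for about 90 hours before reading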
# [10] = Trypanosoma cruzi growth suppression in host cells – NIH3T3 host cells, beta-gal luminescence, confirmation (AID 2044); assay type: functional, cell-based;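 further: intracellular parasites grown in NIH/3T3 mouse fibroblasts as host cells; luminescent beta-galactosidase reporter signal from transgenic T. cruzi replicating inside host cells; inhibitors lower the luminescence signal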
# [11] = target: T3, Corticotropin-releasing factor receptor 2/Corticotropin-releasing factor-binding protein (Homo sapiens, UniProt P24387+Q13324); assay: Dose Response confirmation of uHTS hits for small molecule antagonists of the CRF-binding protein and CRF-R2 receptor complex.; assay type: functional; conditions: read-out: IC50_Mean
# T3 sequence (Q13324 whole entry): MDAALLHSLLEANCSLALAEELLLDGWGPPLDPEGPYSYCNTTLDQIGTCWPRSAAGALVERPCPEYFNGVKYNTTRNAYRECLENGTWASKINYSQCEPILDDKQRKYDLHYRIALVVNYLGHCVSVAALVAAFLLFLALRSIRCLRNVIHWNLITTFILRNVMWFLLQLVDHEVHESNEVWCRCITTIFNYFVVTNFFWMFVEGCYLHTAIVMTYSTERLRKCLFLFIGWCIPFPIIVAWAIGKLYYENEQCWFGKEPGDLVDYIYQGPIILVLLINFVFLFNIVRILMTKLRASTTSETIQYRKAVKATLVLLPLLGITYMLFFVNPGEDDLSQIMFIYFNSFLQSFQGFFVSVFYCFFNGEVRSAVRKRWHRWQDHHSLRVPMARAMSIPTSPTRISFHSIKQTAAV
# T3 sequence (P24387 whole entry): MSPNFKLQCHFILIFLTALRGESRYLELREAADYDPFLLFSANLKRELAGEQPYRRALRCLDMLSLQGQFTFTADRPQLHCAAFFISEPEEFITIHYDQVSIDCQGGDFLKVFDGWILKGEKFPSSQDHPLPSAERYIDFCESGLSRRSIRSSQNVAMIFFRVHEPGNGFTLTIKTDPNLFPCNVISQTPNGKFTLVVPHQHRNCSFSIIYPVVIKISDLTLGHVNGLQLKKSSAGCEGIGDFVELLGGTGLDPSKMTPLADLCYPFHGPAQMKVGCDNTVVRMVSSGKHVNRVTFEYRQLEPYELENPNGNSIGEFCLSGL
# [12] = target: T3, Corticotropin-releasing factor receptor 2/Corticotropin-releasing factor-binding protein; assay: activators of CRF receptor 2 with binding protein – uHTS hits, confirmation (AID 602473); assay type: functional; conditions: read-out: EC50_Mean
# [13] = tested on: Streptococcus sp. 'group A'; assay: Streptococcus pyogenes SK(-)GAS viability under kanamycin – luminescence, BacTiterGlo, confirmation, counter-screen for streptokinase expression inhibitor project, dose response (AID 1900); assay type: functional, organism-based
# Streptococcus = assay: GAS UMAA2166 growth inhibition – luminescence, BacTiterGlo, counter-screen for streptokinase expression inhibitor project, dose response (AID 1915); assay type: functional, organism-based;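 further: potency for reduction of bacterial viability or growth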
# [14] = target: T2, Heat shock factor protein 1; assay: enhancement of HSF1-driven luciferase signal – cell-based, NIH3T3, luminescence, dose retest, confirmation (AID 435004); assay type: functional;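 further: stress induced by proteasome inhibitor MG132 added 30 min after compound; luciferase reporter driven by HSF1 response element in NIH3T3 cells; actives raise luminescence as potentiators of the MG132 stress response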
# Paired box protein Pax-8 = Paired box protein Pax-8 (Homo sapiens, UniProt Q06710); assay: PAX8 transcriptional activity inhibition in RMG-I – RMG-I cells, luciferase, cherry-pick, dose response (AID 687027); assay type: functional, cell-based;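 further: luciferase reporter driven by Pax8 target thyroperoxidase promoter measured by SteadyGlo luminescence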
# [15] = viability of PTEN-deleted HCT116 cells – cell-based, HCT116 PTEN knockout, dose response (AID 1047); assay type: functional;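 further: HCT116 colon tumor cells with PTEN knocked out; cells exposed to compound for 60 hours before readout; potency for loss of cell viability measured by luminescence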
# [16] = viability of HCT116 lacking mutant beta-catenin – cell-based, human colon tumor, dose response (AID 1045); assay type: functional;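 further: HCT116 colon tumor cells with beta catenin knocked out; cells exposed to compound for 60 hours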
# H4 = assay: Luminescence Cell-Based Dose Response HTS to Identify Activators of 5'UTR Stem-Loop Driven Prion Protein mRNA Translation in H4 Neuroglioblastoma Cells. [Related pubchem assays: 1829 (Project Summary), 1814 (Primary HTS)]; assay type: functional; conditions: Homo sapiens
# [17] = Luminescence Cell-Based Dose Response HTS to Identify Activators of Luciferase Translation or Activity in H4 […] Cells. [Related pubchem assays: 1829 (Project Summary), 1814 (Primary HTS)]; assay type: functional
# Sequence of Paired box protein Pax-8 (Q06710 whole entry): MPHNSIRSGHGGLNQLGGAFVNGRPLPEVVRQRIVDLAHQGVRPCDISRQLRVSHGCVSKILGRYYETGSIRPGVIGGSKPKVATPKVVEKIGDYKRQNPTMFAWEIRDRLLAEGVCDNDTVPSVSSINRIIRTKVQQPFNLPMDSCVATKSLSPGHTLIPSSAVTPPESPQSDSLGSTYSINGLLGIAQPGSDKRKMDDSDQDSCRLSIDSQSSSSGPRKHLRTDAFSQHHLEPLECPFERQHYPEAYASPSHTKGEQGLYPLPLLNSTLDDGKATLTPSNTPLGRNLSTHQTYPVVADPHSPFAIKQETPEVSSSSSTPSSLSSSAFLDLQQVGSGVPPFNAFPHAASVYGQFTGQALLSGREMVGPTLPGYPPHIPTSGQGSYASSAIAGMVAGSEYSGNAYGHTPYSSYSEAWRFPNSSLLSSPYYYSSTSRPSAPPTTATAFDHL
smiles,measurement,setting,value
CC(=O)NCCc1cc2cc(C)c(C)cc2nc1O,IC50,Protein skinhead-1,> 100 µM (inactive)
Cc1cc(N2CCN(Cc3cn(C)nc3-c3cccc(Cl)c3)CC2)cc(C)n1,EC50,BJ [1],> 150 µM (inconclusive)
same,EC50,[2],10.6 µM (active)
same,EC50,[3],11.8 µM (active)
same,EC50,[4],10.4 µM (active)
same,EC50,BJ [5],11.3 µM (active)
same,EC50,BJ [6],18.7 µM (active)
same,EC50,[7],8.87 µM (active)
Cc1cc(C(=O)CN2C(=O)NC3(CCCc4ccccc43)C2=O)c(C)n1Cc1ccccc1 (centres undefined),IC50,Protein skinhead-1,> 100 µM (inactive)
COc1nc(-c2ccccc2)ccc1-c1noc(-c2ccco2)n1,IC50,Protein skinhead-1,> 100 µM (inactive)
Cc1ccc2c(N)c(C(=O)N(c3ccccc3)c3ccccc3)sc2n1,EC50,[8],> 195 µM (not active)
same,EC50,[9],> 60 µM (not active)
same,EC50,[10],1.3 µM (active)
Cc1nn(C(C)C(=O)O)c(=O)c2ccccc12 (centres undefined),IC50,[11],> 47.1 µM (inactive)
same,EC50,[12],> 53 µM (inactive)
CCCCc1nnc2c(N(C)S(=O)(=O)c3ccccc3)nc3ccccc3n12,IC50,[11],> 47.1 µM (inactive)
same,EC50,[12],> 53 µM (inactive)
C/C=C/Cn1c(Br)nc2c1c(=O)n(C)c(=O)n2C,EC50,[2],59.3 µM (active)
same,EC50,[4],> 120 µM (not active)
same,EC50,[7],> 120 µM (not active)
CCCCN(CC)S(=O)(=O)c1ccc(C(=O)Nc2nnc(-c3ccccc3Cl)o2)cc1,EC50,[13],0.2 µM (active)
same,EC50,[2],10 µM (active)
same,EC50,[4],11.9 µM (active)
same,EC50,Streptococcus,0.737 µM (active)
same,EC50,[7],12.1 µM (active)
COc1ccc(S(=O)(=O)NNC(=O)c2csc(-n3nc(C)cc3C(F)(F)F)n2)cc1,IC50,[11],> 47.1 µM (inactive)
same,EC50,[12],> 53 µM (inactive)
O=[N+]([O-])c1ccc(COc2cccc3cccnc23)cc1,IC50,Protein skinhead-1,> 100 µM (inactive)
COc1ccc(CN(Cc2cc3cc4c(cc3nc2O)OCO4)C(=O)NC2CCCCC2)cc1,EC50,[2],> 120 µM (not active)
same,EC50,[4],17.8 µM (active)
same,EC50,[7],> 120 µM (not active)
O=C(c1ccc2c(=O)n3c(nc2c1)CCCCC3)N1CCN(C(c2ccccc2)c2ccccc2)CC1,EC50,[2],24.1 µM (active)
same,EC50,[4],12.7 µM (active)
same,EC50,[14],> 260 µM (inactive)
same,EC50,[7],28.3 µM (active)
CC(=O)Nc1ccc(NC(=O)CN(c2ccc(C(C)C)cc2)S(=O)(=O)c2ccccc2)cc1,EC50,[2],> 120 µM (not active)
same,EC50,[4],> 120 µM (not active)
same,EC50,[7],> 120 µM (not active)
CCn1c2ccc(F)cc2c2nc3ccccc3nc21,IC50,Protein skinhead-1,> 100 µM (inactive)
C=C(C)c1cccc(C(C)(C)NC(=O)N2CCN(c3ccccc3OC)CC2)c1,AC50,Paired box protein Pax-8,65.2 µM (active)
COc1ccc(NC(=O)c2cc(C(=O)Nc3ccc(OC)cc3OC)cc([N+](=O)[O-])c2)c(OC)c1,IC50,[11],> 47.1 µM (inactive)
same,EC50,[12],> 53 µM (inactive)
CC(C1CC1)N(Cc1ccccc1)C(S)=Nc1cccc(C(F)(F)F)c1 (centres undefined),AC50,Paired box protein Pax-8,33.2 µM (active)
O=C(COC(=O)CC1c2ccccc2CCN1S(=O)(=O)c1ccc(F)cc1)Nc1ccccc1 (centres undefined),IC50,[11],> 47.1 µM (inactive)
same,EC50,[12],> 53 µM (inactive)
COc1ccc(C)cc1C(=O)CCC(=O)Nc1ccccc1N1CCOCC1,EC50,[15],7.32 µM (active)
same,EC50,[16],5.33 µM (active)
O=C(c1ccc(Br)cc1)N1CCN(c2ncccn2)CC1,IC50,[11],> 47.1 µM (inactive)
same,EC50,[12],> 53 µM (inactive)
CCCC1(CCC)NC(=O)N(CC(=O)Nc2ccc(Cl)c(S(=O)(=O)N3CCOCC3)c2)C1=O,IC50,[11],> 47.1 µM (inactive)
same,EC50,[12],> 53 µM (inactive)
CN(C)c1ccc(/C=C(/C#N)C(=O)Nc2nc3c(s2)CCN(Cc2ccccc2)C3)cc1,IC50,Protein skinhead-1,> 100 µM (inactive)
same,EC50,[12],2.1 µM (active)
C[C@H](O)[C@@H]1CN2CCc3c([nH]c4ccc(-c5ccc6c(c5)OCO6)cc34)[C@@H]2C[C@@H]1N(C)C(=O)NC1CCCCC1,AC50,Paired box protein Pax-8,5.9 µM (active)
CCn1ncc(C(=O)Nc2ccc([N+](=O)[O-])cc2OC)c1C,IC50,[11],> 47.1 µM (inactive)
same,EC50,[12],> 53 µM (inactive)
COc1cc(/C=N/NC(=O)c2ccc(CN3C(=O)c4cccc5cccc3c45)cc2)cc(OC)c1O,AC50,Paired box protein Pax-8,0.286 µM (active)
C=CCN(c1ccc(C(=O)NC(C)C)cc1)S(C)(=O)=O,IC50,Protein skinhead-1,> 100 µM (inactive)
COC(=O)[C@]12CCCCC=C1N(Cc1ccc(Cl)cc1Cl)C(=O)[C@H](CC(=O)N1CCN(C(=O)c3ccco3)CC1)C2,AC50,Paired box protein Pax-8,1.33 µM (active)
O=S(=O)(c1ccc(F)cc1)N1C[C@H]2[C@@H](c3ccccc31)[C@H](CO)N2Cc1ccccc1Cl,AC50,Paired box protein Pax-8,11 µM (active)
C[C@@H]1CN([C@@H](C)CO)C(=O)c2cccc(NC(=O)c3ccncc3)c2O[C@@H]1CN(C)S(=O)(=O)c1cccs1,AC50,Paired box protein Pax-8,69.5 µM (active)
C[C@H]1CCCCO[C@H](CN(C)C(=O)Nc2ccc(C(F)(F)F)cc2)[C@@H](C)CN([C@@H](C)CO)C(=O)c2cc(NS(=O)(=O)c3cccs3)ccc2O1,AC50,Paired box protein Pax-8,7.75 µM (active)
N#C/C(=C\c1cccnc1)c1ccc(Br)cc1,IC50,Protein skinhead-1,> 100 µM (inactive)
O=c1c2cc(-c3ccccc3)sc2ncn1/N=C/c1ccco1,EC50,H4,56.4 µM (active)
same,IC50,Protein skinhead-1,22.1 µM (active)
same,EC50,[17],14.8 µM (active)
O=C(N/N=C/c1ccccc1O)c1cccc2ccccc12,EC50,[13],1.58 µM (active)
same,EC50,[2],6.71 µM (active)
same,EC50,[4],2.12 µM (active)
same,EC50,Streptococcus,6.12 µM (active)
same,EC50,[7],17.1 µM (active)
CC/N=C1\S/C(=C\c2ccc(Sc3ccc(Cl)cc3)o2)C(=O)N1CC,EC50,[2],> 120 µM (not active)
same,EC50,[4],21.4 µM (active)
same,EC50,[7],> 120 µM (not active)
